ChEMBL document CHEMBL4138153, “Synthesis, monoamine oxidase inhibition activity and molecular docking studies of novel 4-hydroxy-N'-[benzylidene or 1-phenylethylidene]-2-H/methyl/benzyl-1,2-benzothiazine-3-carbohydrazide 1,1-dioxides” (Eur J Med Chem, 2018)

Legend:
[1] = biological target: T1, Amine oxidase [flavin-containing] A (Rattus norvegicus, UniProt P21396); assay: Inhibition of MAO-A in rat liver mitochondria using p-tyramine as substrate preincubated for 10 mins followed by substrate addition measured after 30 mins in presence of MAO-B inhibitor deprenyl by Amplex red dye-based fluorescence assay
T1 sequence (P21396 whole entry): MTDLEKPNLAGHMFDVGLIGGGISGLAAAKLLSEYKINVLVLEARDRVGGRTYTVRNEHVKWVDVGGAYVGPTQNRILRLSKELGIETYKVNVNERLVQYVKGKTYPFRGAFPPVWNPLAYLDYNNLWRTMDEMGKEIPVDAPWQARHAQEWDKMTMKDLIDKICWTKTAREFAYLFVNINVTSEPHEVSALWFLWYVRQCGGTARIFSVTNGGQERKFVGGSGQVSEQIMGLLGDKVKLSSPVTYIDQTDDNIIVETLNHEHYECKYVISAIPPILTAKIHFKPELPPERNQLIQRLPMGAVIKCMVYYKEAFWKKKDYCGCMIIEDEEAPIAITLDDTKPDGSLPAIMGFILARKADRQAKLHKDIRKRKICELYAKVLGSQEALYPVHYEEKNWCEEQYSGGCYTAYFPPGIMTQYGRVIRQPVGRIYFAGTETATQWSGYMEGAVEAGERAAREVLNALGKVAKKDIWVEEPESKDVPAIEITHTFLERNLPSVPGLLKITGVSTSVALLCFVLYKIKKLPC

[2] = biological target: T2, Amine oxidase [flavin-containing] B (Rattus norvegicus, UniProt P19643); assay: Inhibition of MAO-B in rat liver mitochondria using p-tyramine as substrate preincubated for 10 mins followed by substrate addition measured after 30 mins in presence of MAO-A inhibitor clorgyline by Amplex red dye-based fluorescence assay
T2 sequence (P19643 whole entry): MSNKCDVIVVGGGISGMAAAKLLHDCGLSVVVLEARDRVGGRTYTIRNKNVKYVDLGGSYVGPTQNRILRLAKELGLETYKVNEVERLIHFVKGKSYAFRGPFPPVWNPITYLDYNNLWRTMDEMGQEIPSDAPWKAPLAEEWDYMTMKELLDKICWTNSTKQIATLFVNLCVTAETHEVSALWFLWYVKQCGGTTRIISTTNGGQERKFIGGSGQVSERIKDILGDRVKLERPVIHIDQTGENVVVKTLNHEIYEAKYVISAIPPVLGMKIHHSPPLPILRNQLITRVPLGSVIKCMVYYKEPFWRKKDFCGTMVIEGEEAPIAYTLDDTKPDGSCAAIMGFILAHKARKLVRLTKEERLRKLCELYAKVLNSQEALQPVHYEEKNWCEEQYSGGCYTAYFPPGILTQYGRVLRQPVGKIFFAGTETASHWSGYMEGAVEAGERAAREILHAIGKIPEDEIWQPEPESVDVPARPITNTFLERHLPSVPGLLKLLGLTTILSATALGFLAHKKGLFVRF

[3] = organism: Rattus norvegicus; assay: Selectivity index, ratio of IC50 for MAO-A in rat liver mitochondria to IC50 for MAO-B in rat liver mitochondria
[4] = biological target: T2, Amine oxidase [flavin-containing] B; assay: Competitive inhibition of MAO-B in rat liver mitochondria using p-tyramine as substrate up to 0.3 uM preincubated for 10 mins followed by substrate addition measured after 30 mins by Lineweaver-burk plot analysis; details: 0.5 h
[5] = biological target: T1, Amine oxidase [flavin-containing] A; assay: Competitive inhibition of MAO-A in rat liver mitochondria using p-tyramine as substrate up to 0.15 uM preincubated for 10 mins followed by substrate addition measured after 30 mins by Lineweaver-burk plot analysis; details: 0.5 h

IC50 [1] [µM]	IC50 [2] [µM]	Ratio IC50 [3]	inhibition (INH) [4]	inhibition (INH) [5]	Structure (SMILES)
6.67	7.14	0.93			C/C(=N\NC(=O)C1=C(O)c2ccccc2S(=O)(=O)N1C)c1ccccc1
2.97	0.21	14.1	Active		COC(=O)C1=C(O)c2ccccc2S(=O)(=O)N1
6.12	15.5	0.39			CN1C(C(=O)N/N=C/c2ccc(Cl)cc2)=C(O)c2ccccc2S1(=O)=O
0.44	18.2	0.02			CC(C)c1ccc(/C=N/NC(=O)C2=C(O)c3ccccc3S(=O)(=O)N2C)cc1
11.2	0.76	14.7			C/C(=N\NC(=O)C1=C(O)c2ccccc2S(=O)(=O)N1C)c1ccc(Cl)cc1
≥ 100	10.6	> 9.43			NNC(=O)C1=C(O)c2ccccc2S(=O)(=O)N1Cc1ccccc1
1.11	0.27	4.11			COC(=O)CN1C(=O)c2ccccc2S1(=O)=O
0.38	8.61	0.04			CN1C(C(=O)NN=C2CCCC2)=C(O)c2ccccc2S1(=O)=O
0.12	1.5	0.08			CN1C(C(=O)NN)=C(O)c2ccccc2S1(=O)=O
11.4	3.41	3.34			CN1C(C(=O)N/N=C/c2ccccc2O)=C(O)c2ccccc2S1(=O)=O
4.85	24.1	0.2			Cc1ccc(/C=N/NC(=O)C2=C(O)c3ccccc3S(=O)(=O)N2C)cc1
21.1	1.76	11.9			CN1C(C(=O)N/N=C/c2ccccc2)=C(O)c2ccccc2S1(=O)=O
29.8	38.3	0.78			CN1C(C(=O)N/N=C/c2cccc(Cl)c2)=C(O)c2ccccc2S1(=O)=O
0.11	3.33	0.03		Active	C/C(=N\NC(=O)C1=C(O)c2ccccc2S(=O)(=O)N1)c1ccccc1
26.6	23.1	1.15			COC(=O)C1=C(O)c2ccccc2S(=O)(=O)N1C
9.51	0.29	32.8			COC(=O)C1=C(O)c2ccccc2S(=O)(=O)N1Cc1ccccc1
≥ 100	0.92	> 109			O=C(NN=C1CCCC1)C1=C(O)c2ccccc2S(=O)(=O)N1
18.9	23.1	0.82			COc1ccc(/C=N/NC(=O)C2=C(O)c3ccccc3S(=O)(=O)N2C)cc1
0.32	0.76	0.42			CCOc1ccc(/C=N/NC(=O)C2=C(O)c3ccccc3S(=O)(=O)N2C)cc1
10.8	25.1	0.43			C/C(=N\NC(=O)C1=C(O)c2ccccc2S(=O)(=O)N1C)c1ccc(F)cc1
≥ 100	0.99	> 101			O=C(NN=C1CCCC1)C1=C(O)c2ccccc2S(=O)(=O)N1Cc1ccccc1
1.91	8.86	0.21			O=C(N/N=C/c1ccccc1)C1=C(O)c2ccccc2S(=O)(=O)N1
0.177	0.31	0.57			O=C(N/N=C/c1ccc(Cl)cc1)C1=C(O)c2ccccc2S(=O)(=O)N1
0.35	39.3	0.01			O=C(N/N=C/c1cccc(Cl)c1)C1=C(O)c2ccccc2S(=O)(=O)N1
1.58	4.33	0.36			NNC(=O)C1=C(O)c2ccccc2S(=O)(=O)N1
5.07	9.47	0.53			O=C(N/N=C/c1ccccc1O)C1=C(O)c2ccccc2S(=O)(=O)N1

The remaining lines, values behind:

Structure (SMILES)	IC50 [1] [µM]	IC50 [2] [µM]	Ratio IC50 [3]	inhibition (INH) [4]	inhibition (INH) [5]
COc1ccc(/C=N/NC(=O)C2=C(O)c3ccccc3S(=O)(=O)N2)cc1	5.76	1.91	3.02		
CC(C)c1ccc(/C=N/NC(=O)C2=C(O)c3ccccc3S(=O)(=O)N2Cc2ccccc2)cc1	5.07	36.8	0.13		
O=C(N/N=C/c1ccccc1)C1=C(O)c2ccccc2S(=O)(=O)N1Cc1ccccc1	≥ 100	9.52	> 10.5		
C/C(=N\NC(=O)C1=C(O)c2ccccc2S(=O)(=O)N1Cc1ccccc1)c1ccccc1	1.22	2.26	0.54		
C/C(=N\NC(=O)C1=C(O)c2ccccc2S(=O)(=O)N1)c1ccc(F)cc1	53.4	40.3	1.32		
O=C(N/N=C/c1ccccc1O)C1=C(O)c2ccccc2S(=O)(=O)N1Cc1ccccc1	18.7	4.24	4.41		
Cc1ccc(/C=N/NC(=O)C2=C(O)c3ccccc3S(=O)(=O)N2Cc2ccccc2)cc1	≥ 100	89.1	> 1.12		
Cc1ccc(/C=N/NC(=O)C2=C(O)c3ccccc3S(=O)(=O)N2)cc1	7.48	0.64	11.7		
COc1ccc(/C=N/NC(=O)C2=C(O)c3ccccc3S(=O)(=O)N2Cc2ccccc2)cc1	0.24	0.29	0.83		
CCOc1ccc(/C=N/NC(=O)C2=C(O)c3ccccc3S(=O)(=O)N2Cc2ccccc2)cc1	28.3	5.78	4.89		
C/C(=N\NC(=O)C1=C(O)c2ccccc2S(=O)(=O)N1Cc1ccccc1)c1ccc(Cl)cc1	0.33	10.1	0.03		
C/C(=N\NC(=O)C1=C(O)c2ccccc2S(=O)(=O)N1)c1ccc(Cl)cc1	≥ 100	10.9	> 9.17		
O=C(N/N=C/c1ccc(Cl)cc1)C1=C(O)c2ccccc2S(=O)(=O)N1Cc1ccccc1	≥ 100	2.08	> 48.1		
CCOc1ccc(/C=N/NC(=O)C2=C(O)c3ccccc3S(=O)(=O)N2)cc1	16.9	9.31	1.81		
CC(C)c1ccc(/C=N/NC(=O)C2=C(O)c3ccccc3S(=O)(=O)N2)cc1	≥ 100	38.1	> 2.62		
C/C(=N\NC(=O)C1=C(O)c2ccccc2S(=O)(=O)N1Cc1ccccc1)c1ccc(F)cc1	≥ 100	6.04	> 16.5		
O=C(N/N=C/c1cccc(Cl)c1)C1=C(O)c2ccccc2S(=O)(=O)N1Cc1ccccc1	0.96	36.4	0.02		
